Reference: patent US20260347373A1, “HETEROCYCLIC COMPOUNDS, COMPOSITIONS THEREOF, AND METHODS OF TREATMENT THEREWITH” (BeOne Medicines I GmbH, priority 2023, published 2026)
Read-outs that look alike come from different tables or passages of the source.

Tests used:
KRAS G12D = KRAS G12D (Homo sapiens, UniProt P01116, G12D); assay: KRAS G12D Probe Displacement Assay (TR-FRET, GDP-loaded); type: binding
Description: (§1) The synthetic routes of probe 1 and 2, which have been disclosed in PCT/CN2022/070676, are hereby incorporated herein.

WT KRAS = WT KRAS (Homo sapiens, UniProt P01116); assay: KRAS WT Probe Displacement Assay (TR-FRET, GDP-loaded); type: binding
WT KRAS, sequence (P01116 1-188 isoform P01116-2): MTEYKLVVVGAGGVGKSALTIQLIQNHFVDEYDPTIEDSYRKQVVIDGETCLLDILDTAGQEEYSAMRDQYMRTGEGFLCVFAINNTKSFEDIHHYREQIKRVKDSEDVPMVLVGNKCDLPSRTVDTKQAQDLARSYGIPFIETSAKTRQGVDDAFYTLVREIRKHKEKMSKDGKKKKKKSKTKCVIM
Description: as §1

[1] = KRAS G12D, read-out: KRAS^G12D Probe Displacement Assay IC50
[2] = KRAS WT, read-out: KRAS^WT Probe Displacement Assay IC50

KRAS G12D, sequence (P01116 1-188 isoform P01116-2 G12D): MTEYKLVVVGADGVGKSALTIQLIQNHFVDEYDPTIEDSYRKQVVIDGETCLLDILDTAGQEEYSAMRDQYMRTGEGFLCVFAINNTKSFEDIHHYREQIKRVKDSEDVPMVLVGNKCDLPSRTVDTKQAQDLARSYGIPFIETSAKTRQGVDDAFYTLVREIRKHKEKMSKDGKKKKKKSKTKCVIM

Structure (SMILES)	IC50 (KRAS G12D; [1]) [nM]	IC50 (WT KRAS; [2]) [nM]	IC50 (KRAS G12D; KRAS^G12D Probe Displacement Assay IC50, KRAS G12D) [nM]	IC50 (WT KRAS; KRAS^WT Probe Displacement Assay IC50, KRAS WT) [nM]
Cc1cc(N)cc(-c2nc3c4c(nc(OCC5(CN6CCC(C#N)C6)CC5)nc4c2F)N2C[C@H]4CC[C@H](N4)[C@H]2CCO3)c1C(F)(F)F (stereo partly drawn) [Example 166, 1-((1-((((6aR,7S,10R)-2-(5-amino-3-methyl-2-(trifluoromethyl)phenyl)-1-fluoro-5,6,6a,7,8,9,10,11-octahydro-4-oxa-3,11a,12,14,15-pentaaza-7,10-methanocyclohepta[4,5]cycloocta[1,2,3-de]naphthalen-13-yl)oxy)methyl)cyclopropyl)methyl)pyrrolidine-3-carbonitrile]	< 0.3	3 to 1000	–	–
Cc1cc(N)cc(-c2nc3c4c(nc(OCC5(CN6C[C@H]7C[C@H]7[C@H]6C)CC5)nc4c2F)N2C[C@H]4CC[C@H](N4)[C@H]2CCO3)c1C(F)(F)F [Example 172, 3-((6aR,7S,10R)-1-fluoro-13-((1-(((1R,2R,5S)-2-methyl-3-azabicyclo[3.1.0]hexan-3-yl)methyl)cyclopropyl)methoxy)-5,6,6a,7,8,9,10,11-octahydro-4-oxa-3,11a,12,14,15-pentaaza-7,10-methanocyclohepta[4,5]cycloocta[1,2,3-de]naphthalen-2-yl)-5-methyl-4-(trifluoromethyl)aniline]	< 0.3	3 to 1000	–	–
Cc1cc(N)cc(-c2nc3c4c(nc(OC[C@@]5(C)CCCN(C6CCOCC6)C5)nc4c2F)N2C[C@H]4CC[C@H](N4)[C@H]2CCO3)c1C(F)(F)F [Example 195, 3-((6aR,7S,10R)-1-fluoro-13-(((S)-3-methyl-1-(tetrahydro-2H-pyran-4-yl)piperidin-3-yl)methoxy)-5,6,6a,7,8,9,10,11-octahydro-4-oxa-3,11a,12,14,15-pentaaza-7,10-methanocyclohepta[4,5]cycloocta[1,2,3-de]naphthalen-2-yl)-5-methyl-4-(trifluoromethyl)aniline]	< 0.3	0.3 to 3	–	–
COC1CCCN(CC2(COc3nc4c5c(nc(-c6cc(N)cc(C)c6C(F)(F)F)c(F)c5n3)OCC[C@@H]3[C@@H]5CC[C@H](CN43)N5)CC2)C1 (stereo partly drawn) [Example 119, 3-((6aR,7S,10R)-1-fluoro-13-((1-((3-methoxypiperidin-1-yl)methyl)cyclopropyl)methoxy)-5,6,6a,7,8,9,10,11-octahydro-4-oxa-3,11a,12,14,15-pentaaza-7,10-methanocyclohepta [4,5]cycloocta[1,2,3-de]naphthalen-2-yl)-5-methyl-4-(trifluoromethyl) aniline]	–	–	< 0.3	3 to 1000
Cc1cc(N)cc(-c2nc3c4c(nc(OCC5(CN6CC7CC(C6)O7)CC5)nc4c2F)N2C[C@H]4CC[C@H](N4)[C@H]2CCO3)c1C(F)(F)F [Example 105, 3-((6aR,7S,10R)-13-((1-((6-oxa-3-azabicyclo [3.1.1]heptan-3-yl)methyl)cyclopropyl)methoxy)-1-fluoro-5,6,6a,7,8,9,10,11-octahydro-4-oxa-3,11a,12,14,15-pentaaza-7,10-methanocyclohepta [4,5]cycloocta [1,2,3-de]naphthalen-2-yl)-5-methyl-4-(trifluoromethyl)aniline]	< 0.3	0.3 to 3	–	–
Cc1cc(N)cc(-c2nc3c4c(nc(OCC5(CN6CC(C)(O)C6)CC5)nc4c2F)N2C[C@H]4CC[C@H](N4)[C@H]2CCO3)c1C(F)(F)F [Example 81, 1-((1-((((6aR,7S, 10R)-2-(5-amino-3-methyl-2-(trifluoromethyl)phenyl)-1-fluoro-5,6,6a,7,8,9,10,11-octahydro-4-oxa-3,11a,12,14,15-pentaaza-7,10-methanocyclohepta [4,5]cycloocta [1,2,3-de]naphthalen-13-yl)oxy)methyl)cyclopropyl)methyl)-3-methylazetidin-3-ol]	< 0.3	3 to 1000	–	–
Cc1nc(N)cc(-c2nc3c4c(nc(OCC5(CN6CCC(=C(F)F)CC6)CC5)nc4c2F)N2C[C@H]4CC[C@H](N4)[C@H]2CCO3)c1C(F)(F)F [Example 147, 4-((6aR,7S,10R)-13-((1-((4-(difluoromethylene)piperidin-1-yl)methyl)cyclopropyl)methoxy)-1-fluoro-5,6,6a,7,8,9,10,11-octahydro-4-oxa-3,11a,12,14,15-pentaaza-7,10-methano-cyclohepta[4,5]cycloocta [1,2,3-de]naphthalen-2-yl)-6-methyl-5-(trifluoromethyl)pyridin-2-amine]	< 0.3	3 to 1000	–	–
[2H]C([2H])([2H])c1cc(N)cc(-c2nc3c4c(nc(OC[C@@]5(CN(C)C)CC5(F)F)nc4c2F)N2C[C@H]4CC[C@H](N4)[C@H]2CCO3)c1C(F)(F)F [Example 46, 3-((6aR,7S,10R)-13-(((S)-1-((dimethylamino)methyl)-2,2-difluorocyclopropyl)methoxy)-1-fluoro-5,6,6a,7,8,9,10,11-octahydro-4-oxa-3,11a,12,14,15-pentaaza-7,10-methanocyclohepta[4,5]cycloocta [1,2,3-de]naphthalen-2-yl)-5-(methyl-d3)-4-(trifluoromethyl)aniline]	< 0.3	3 to 1000	–	–
Cc1cc(N)cc(-c2nc3c4c(nc(OCC5(CN6C[C@H](C)O[C@@H](C)C6)CC5(F)F)nc4c2F)N2C[C@H]4CC[C@H](N4)[C@H]2CCO3)c1C(F)(F)F (single isomer, unassigned) [Example 26]	0.3 to 3	3 to 1000	–	–
Cc1cc(N)cc(-c2nc3c4c(nc(OCC5(CN6CC=CC6CO)CC5)nc4c2F)N2C[C@H]4CC[C@H](N4)[C@H]2CCO3)c1C(F)(F)F (stereo partly drawn) [Example 161, (1-((1-((((6aR,7S,10R)-2-(5-amino-3-methyl-2-(trifluoromethyl)phenyl)-1-fluoro-5,6,6a,7,8,9,10,11-octahydro-4-oxa-3,11a,12,14,15-pentaaza-7,10-methanocyclohepta[4,5]cycloocta[1,2,3-de]naphthalen-13-yl)oxy)methyl)cyclopropyl)methyl)-2,5-dihydro-1H-pyrrol-2-yl)methanol]	< 0.3	3 to 1000	–	–
Cc1cc(N)cc(-c2nc3c4c(nc(OCC5(C(C)N(C)C)CC5(F)F)nc4c2F)N2C[C@H]4CC[C@H](N4)[C@H]2CCO3)c1C(F)(F)F (single isomer, unassigned) [Example 59]	< 0.3	3 to 1000	–	–
Cc1cc(N)cc(-c2nc3c4c(nc(OCC5(CN6CC(C)OC(C)C6)CC5(F)F)nc4c2F)N2C[C@H]4CC[C@H](N4)[C@H]2CCO3)c1C(F)(F)F (single isomer, unassigned) [Example 24]	0.3 to 3	3 to 1000	–	–
Cc1cc(N)cc(-c2nc3c4c(nc(OCC5(CN6C[C@@H](C)O[C@@H](C)C6)CC5)nc4c2F)N2C[C@H]4CC[C@H](N4)[C@H]2CCO3)c1C(F)(F)F [Example 64, 3-((6aR,7S,10R)-13-((1-(((2S,6R)-2,6-dimethylmorpholino)methyl)cyclopropyl)methoxy)-1-fluoro-5,6,6a,7,8,9,10,11-octahydro-4-oxa-3,11a,12,14,15-pentaaza-7,10-methanocyclohepta[4,5]cycloocta [1,2,3-de]naphthalen-2-yl)-5-methyl-4-(trifluoromethyl)aniline]	< 0.3	0.3 to 3	–	–
Cc1cc(N)cc(-c2nc3c4c(nc(OCC5(CN6CCOCC6)CC5)nc4c2F)N2C[C@H]4CC[C@H](N4)[C@H]2CCO3)c1C(F)(F)F [Example 67, 3-((6aR,7S,10R)-1-fluoro-13-((1-(morpholinomethyl)cyclopropyl)methoxy)-5,6,6a,7,8,9,10,11-octahydro-4-oxa-3,11a,12,14,15-pentaaza-7,10-methanocyclohepta[4,5]cycloocta [1,2,3-de]naphthalen-2-yl)-5-methyl-4-(trifluoromethyl)aniline]	< 0.3	3 to 1000	–	–
[2H]C([2H])([2H])N1CC[C@H](OC)[C@H]1[C@H](C)Oc1nc2c3c(nc(-c4cc(N)cc(Cl)c4C(F)(F)F)c(F)c3n1)OCC[C@@H]1[C@@H]3CC[C@H](CN21)N3 [Example 218, 3-chloro-5-((6aR,7S,10R)-1-fluoro-13-((S)-1-((2R,3S)-3-methoxy-1-(methyl-d3)pyrrolidin-2-yl)ethoxy)-5,6,6a,7,8,9,10,11-octahydro-4-oxa-3,11a,12,14,15-pentaaza-7,10-methanocyclohepta[4,5]cycloocta[1,2,3-de]naphthalen-2-yl)-4-(trifluoromethyl)aniline]	< 0.3	0.3 to 3	–	–
Cc1cc(N)cc(-c2nc3c4c(nc(OCC5(CN6C[C@@H]7[C@@H](CF)[C@@H]7C6)CC5)nc4c2F)N2C[C@H]4CC[C@H](N4)[C@H]2CCO3)c1C(F)(F)F [Example 170, 3-((6aR,7S,10R)-1-fluoro-13-((1-(((1R,5S,6R)-6-(fluoromethyl)-3-azabicyclo[3.1.0]hexan-3-yl)methyl)cyclopropyl)methoxy)-5,6,6a,7,8,9,10,11-octahydro-4-oxa-3,11a,12,14,15-pentaaza-7,10-methanocyclohepta[4,5]cycloocta[1,2,3-de]naphthalen-2-yl)-5-methyl-4-(trifluoromethyl)aniline]	< 0.3	3 to 1000	–	–
Cc1cc(N)cc(-c2nc3c4c(nc(OCC5(CN6CC=C[C@H]6C)CC5)nc4c2F)N2C[C@H]4CC[C@H](N4)[C@H]2CCO3)c1C(F)(F)F [Example 160, 3-((6aR,7S,10R)-1-fluoro-13-((1-(((R)-2-methyl-2,5-dihydro-1H-pyrrol-1-yl)methyl)cyclopropyl)methoxy)-5,6,6a,7,8,9,10,11-octahydro-4-oxa-3,11a,12,14,15-pentaaza-7,10-methanocyclohepta[4,5]cycloocta[1,2,3-de]naphthalen-2-yl)-5-methyl-4-(trifluoromethyl)aniline]	< 0.3	3 to 1000	–	–
